Reference: the NIST ThermoML archive (doi:10.1021/je060137q)

Key:
[1] = for surface tension liquid-gas: Pendant drop shape; for mass density: 101 kPa, Liquid
[2] = xn = mol fraction of the nth substance listed; settings: for surface tension liquid-gas: Pendant drop shape; for mass density: 101 kPa, Liquid

Cc1ccc(C)c(C)c1 [1,2,4-trimethylbenzene]
[1]
Settings	mass density [kg/m3]	surface tension liquid-gas [mN/m]
298.15 K	871.64	29.29
313.15 K	859.5	27.67

Cc1ccc(C)c(C)c1 [1,2,4-trimethylbenzene] + CCOC(=O)OCC
[2]
Settings	mass density [kg/m3]	surface tension liquid-gas [mN/m]
298.15 K, x2 = 0	871.64	29.29
298.15 K, x2 = 0.0501	875.81	–
298.15 K, x2 = 0.1005	880.1	28.85
298.15 K, x2 = 0.1497	884.28	–
298.15 K, x2 = 0.1994	888.62	28.41
298.15 K, x2 = 0.2518	893.23	–
298.15 K, x2 = 0.2998	897.55	27.98
298.15 K, x2 = 0.3499	902.17	–
298.15 K, x2 = 0.4001	–	27.58
298.15 K, x2 = 0.4004	906.89	–
298.15 K, x2 = 0.4496	911.54	–
298.15 K, x2 = 0.5	916.38	27.23
298.15 K, x2 = 0.5494	921.22	–
298.15 K, x2 = 0.5997	926.24	–
298.15 K, x2 = 0.6497	931.3	–
298.15 K, x2 = 0.6998	936.41	–
298.15 K, x2 = 0.7505	941.72	–
298.15 K, x2 = 0.8001	947	–
298.15 K, x2 = 0.8499	952.36	–
298.15 K, x2 = 0.9	957.82	–
298.15 K, x2 = 0.95	963.45	–
313.15 K, x2 = 0	859.5	27.67
313.15 K, x2 = 0.0508	863.46	–
313.15 K, x2 = 0.1	–	27.16
313.15 K, x2 = 0.1005	867.43	–
313.15 K, x2 = 0.1486	871.36	–
313.15 K, x2 = 0.2002	–	26.69
313.15 K, x2 = 0.2012	875.71	–
313.15 K, x2 = 0.2507	879.88	–
313.15 K, x2 = 0.3005	–	26.23
313.15 K, x2 = 0.3007	884.17	–
313.15 K, x2 = 0.352	888.61	–
313.15 K, x2 = 0.3997	–	25.81
313.15 K, x2 = 0.4006	892.94	–
313.15 K, x2 = 0.4499	897.37	–
313.15 K, x2 = 0.4981	901.79	–
313.15 K, x2 = 0.5001	–	25.49
313.15 K, x2 = 0.5498	906.6	–
313.15 K, x2 = 0.597	911.06	–
313.15 K, x2 = 0.6481	915.93	–
313.15 K, x2 = 0.699	920.93	–
313.15 K, x2 = 0.7499	925.98	–
313.15 K, x2 = 0.8002	931.06	–
313.15 K, x2 = 0.8473	935.87	–
313.15 K, x2 = 0.9001	941.45	–
313.15 K, x2 = 0.9499	946.74	–

Cc1ccc(C)c(C)c1 [1,2,4-trimethylbenzene] + COC(=O)OC
[2]
Settings	mass density [kg/m3]	surface tension liquid-gas [mN/m]
298.15 K, x2 = 0	871.64	29.29
298.15 K, x2 = 0.0499	876.93	–
298.15 K, x2 = 0.0999	882.55	28.93
298.15 K, x2 = 0.15	888.53	–
298.15 K, x2 = 0.2	894.76	28.64
298.15 K, x2 = 0.2498	901.22	–
298.15 K, x2 = 0.2995	908.07	–
298.15 K, x2 = 0.3001	–	28.34
298.15 K, x2 = 0.3502	915.53	–
298.15 K, x2 = 0.4001	923.26	28.21
298.15 K, x2 = 0.45	931.35	–
298.15 K, x2 = 0.5	939.96	28.08
298.15 K, x2 = 0.55	949.04	–
298.15 K, x2 = 0.5998	958.57	–
298.15 K, x2 = 0.65	968.9	–
298.15 K, x2 = 0.6999	979.71	–
298.15 K, x2 = 0.7497	991.22	–
298.15 K, x2 = 0.7997	1003.68	–
298.15 K, x2 = 0.8501	1017.1	–
298.15 K, x2 = 0.8999	1031.25	–
298.15 K, x2 = 0.9498	1046.57	–
313.15 K, x2 = 0	859.5	27.67
313.15 K, x2 = 0.0505	864.72	–
313.15 K, x2 = 0.1008	–	27.23
313.15 K, x2 = 0.1012	870.23	–
313.15 K, x2 = 0.15	875.75	–
313.15 K, x2 = 0.1999	–	26.82
313.15 K, x2 = 0.2008	881.92	–
313.15 K, x2 = 0.2491	887.96	–
313.15 K, x2 = 0.2996	–	26.51
313.15 K, x2 = 0.3003	894.87	–
313.15 K, x2 = 0.3498	901.76	–
313.15 K, x2 = 0.3991	–	26.29
313.15 K, x2 = 0.401	909.43	–
313.15 K, x2 = 0.4509	917.26	–
313.15 K, x2 = 0.5	–	26.11
313.15 K, x2 = 0.5008	925.59	–
313.15 K, x2 = 0.5507	934.32	–
313.15 K, x2 = 0.5998	943.46	–
313.15 K, x2 = 0.65	953.33	–
313.15 K, x2 = 0.6995	963.85	–
313.15 K, x2 = 0.7505	975.23	–
313.15 K, x2 = 0.7994	986.99	–
313.15 K, x2 = 0.8502	1000	–
313.15 K, x2 = 0.8976	1013.08	–
313.15 K, x2 = 0.9504	1028.72	–

Cc1cc(C)cc(C)c1 [1,3,5-trimethylbenzene]
[1]
Settings	mass density [kg/m3]	surface tension liquid-gas [mN/m]
298.15 K	861.04	28.09
313.15 K	848.73	26.82

Cc1cc(C)cc(C)c1 [1,3,5-trimethylbenzene] + CCOC(=O)OCC
[2]
Settings	mass density [kg/m3]	surface tension liquid-gas [mN/m]
298.15 K, x2 = 0	861.04	28.09
298.15 K, x2 = 0.05	865.43	–
298.15 K, x2 = 0.1	869.94	27.71
298.15 K, x2 = 0.15	874.61	–
298.15 K, x2 = 0.1999	879.3	27.37
298.15 K, x2 = 0.2501	884.12	–
298.15 K, x2 = 0.2999	889.01	27.01
298.15 K, x2 = 0.3498	893.96	–
298.15 K, x2 = 0.3999	899.08	26.76
298.15 K, x2 = 0.4499	904.28	–
298.15 K, x2 = 0.5006	909.64	26.56
298.15 K, x2 = 0.5497	914.93	–
298.15 K, x2 = 0.6001	920.47	–
298.15 K, x2 = 0.6498	926.07	–
298.15 K, x2 = 0.7007	931.9	–
298.15 K, x2 = 0.7495	937.62	–
298.15 K, x2 = 0.8004	943.71	–
298.15 K, x2 = 0.849	949.64	–
298.15 K, x2 = 0.9001	956.06	–
298.15 K, x2 = 0.9501	962.49	–
313.15 K, x2 = 0	848.73	26.82
313.15 K, x2 = 0.0502	852.95	–
313.15 K, x2 = 0.0997	–	26.36
313.15 K, x2 = 0.1001	857.31	–
313.15 K, x2 = 0.1497	861.7	–
313.15 K, x2 = 0.1995	–	25.95
313.15 K, x2 = 0.201	866.26	–
313.15 K, x2 = 0.248	870.64	–
313.15 K, x2 = 0.2987	875.33	–
313.15 K, x2 = 0.2997	–	25.57
313.15 K, x2 = 0.3417	879.45	–
313.15 K, x2 = 0.4001	–	25.22
313.15 K, x2 = 0.4009	885.2	–
313.15 K, x2 = 0.4487	889.94	–
313.15 K, x2 = 0.5001	–	24.93
313.15 K, x2 = 0.5005	895.18	–
313.15 K, x2 = 0.5501	900.3	–
313.15 K, x2 = 0.5995	905.52	–
313.15 K, x2 = 0.651	911.05	–
313.15 K, x2 = 0.6995	916.4	–
313.15 K, x2 = 0.7495	921.97	–
313.15 K, x2 = 0.8004	927.84	–
313.15 K, x2 = 0.8501	933.7	–
313.15 K, x2 = 0.9001	939.69	–
313.15 K, x2 = 0.9501	945.76	–

Cc1cc(C)cc(C)c1 [1,3,5-trimethylbenzene] + COC(=O)OC
[2]
Settings	mass density [kg/m3]	surface tension liquid-gas [mN/m]
298.15 K, x2 = 0	861.04	28.09
298.15 K, x2 = 0.054	867.08	–
298.15 K, x2 = 0.1048	872.95	27.91
298.15 K, x2 = 0.1518	878.8	–
298.15 K, x2 = 0.1998	885.1	27.6
298.15 K, x2 = 0.2491	891.85	–
298.15 K, x2 = 0.3001	899.28	27.43
298.15 K, x2 = 0.3496	906.77	–
298.15 K, x2 = 0.3999	–	27.32
298.15 K, x2 = 0.4001	914.84	–
298.15 K, x2 = 0.4499	923.32	–
298.15 K, x2 = 0.4999	932.32	27.34
298.15 K, x2 = 0.5508	942.03	–
298.15 K, x2 = 0.5977	951.57	–
298.15 K, x2 = 0.6488	962.47	–
298.15 K, x2 = 0.7	974.17	–
298.15 K, x2 = 0.7514	986.83	–
298.15 K, x2 = 0.7999	999.6	–
298.15 K, x2 = 0.85	1013.67	–
298.15 K, x2 = 0.8999	1028.84	–
298.15 K, x2 = 0.9499	1045.18	–
313.15 K, x2 = 0	848.73	26.82
313.15 K, x2 = 0.0505	854.19	–
313.15 K, x2 = 0.1009	–	26.42
313.15 K, x2 = 0.1046	860.31	–
313.15 K, x2 = 0.15	865.69	–
313.15 K, x2 = 0.1994	–	26.04
313.15 K, x2 = 0.2007	872.13	–
313.15 K, x2 = 0.2489	878.45	–
313.15 K, x2 = 0.2985	885.42	–
313.15 K, x2 = 0.2996	–	25.8
313.15 K, x2 = 0.35	892.95	–
313.15 K, x2 = 0.3983	900.54	–
313.15 K, x2 = 0.4016	–	25.63
313.15 K, x2 = 0.4498	908.93	–
313.15 K, x2 = 0.5001	917.76	–
313.15 K, x2 = 0.5004	–	25.55
313.15 K, x2 = 0.5492	926.76	–
313.15 K, x2 = 0.5999	936.76	–
313.15 K, x2 = 0.6488	946.86	–
313.15 K, x2 = 0.6992	958.18	–
313.15 K, x2 = 0.7489	969.98	–
313.15 K, x2 = 0.7995	982.91	–
313.15 K, x2 = 0.8479	996.11	–
313.15 K, x2 = 0.8997	1011.33	–
313.15 K, x2 = 0.9501	1027.37	–

CCOC(=O)OCC [diethyl carbonate]
[1]
Settings	mass density [kg/m3]
298.15 K	969.12
313.15 K	952.15

CCOC(=O)OCC [diethyl carbonate] + Cc1cc(C)cc(C)c1
[2], x1 = 1
Settings	mass density [kg/m3]
298.15 K	969.12
313.15 K	952.15

CCOC(=O)OCC [diethyl carbonate] + Cc1ccc(C)c(C)c1
[2], x1 = 1
Settings	mass density [kg/m3]
298.15 K	969.12
313.15 K	952.15

COC(=O)OC [dimethyl carbonate]
[1]
Settings	mass density [kg/m3]
298.15 K	1062.97
313.15 K	1044.63

COC(=O)OC [dimethyl carbonate] + Cc1cc(C)cc(C)c1
[2], x1 = 1
Settings	mass density [kg/m3]
298.15 K	1062.97
313.15 K	1044.63

COC(=O)OC [dimethyl carbonate] + Cc1ccc(C)c(C)c1
[2], x1 = 1
Settings	mass density [kg/m3]
298.15 K	1062.97
313.15 K	1044.63
